Measurements as given in patent publication US12534696B2, “Systems and methods for immobilizing extracellular matrix material on organ on chip, multilayer microfluidics microdevices, and three-dimensional cell culture systems” (THE TRUSTEES OF THE UNIVERSITY OF PENNSYLVANIA, priority 2015, dated 2026).

Legend:
[1] = system: human lung fibroblasts; experiment: Serum-induced fibrosis in the biomimetic five-layer lung fibrosis model; assay type: cell-based; conditions: 2 μM PP2 added to medium 24 hours after assembly and maintained; cells cultured in 2D with 2% serum, then 0.2% in the model
[2] = system: human lung fibroblasts; experiment: Agent-induced injury (fibrotic response) in the five-layer biomimetic lung model; assay type: cell-based; conditions: SHH added exogenously at 500 ng/ml
Procedure: In order to test whether the cells in the gel layer can be fed via the channels, one experiment was conducted with only cells in the gel layer (FIG. 39). In particular, human lung fibroblasts and THP-1 macrophage cells were included in the gel layer. The gel was created by adding collegen to physiological aqueous buffer. Additionally or alternatively, any aqueous buffer (e.g., phosphate buffered saline (PBS) buffer) can be used. The aqueous buffer can be kept at a concentration between 0.1 and 2 mg/ml and kept at 4° C. Human lung fibroblasts (100 K cells/ml) and THP-1 macrophage (50 K cells/ml) cells were added to the gel during the liquid phase. The side of the membranes facing the chamber slab (e.g. 242 and 251) were treated with sulfo-sanpah to promote collagen/ECM anchorage. The lower channel slab, lower membrane, and chamber slab were stacked. The gel was then pipetted into the chamber (e.g., 231). After the upper membrane and upper channel slab was placed on top, the biomimetic organ model was clamped and the biomimetic organ model was placed in the incubator at 37° C. The biomimetic organ model was incubated for five days. For continuous perfusion of culture medium at 200 μL/hr in each channel, FGM-2 can be used as the medium having a reduced serum (e.g., between 0-2% and 2%).
In this study, the development of the organ injury model was examined. […]

| Compound | effect on serum-induced fibrosis (FIG. 49) [1] | induction of fibrotic response (FIG. 48) [2] |
| --- | --- | --- |
| CC(C)(C)n1nc(-c2ccc(Cl)cc2)c2c(N)ncnc21 [PP2] | reduced fibrosis |  |
| sonic hedgehog [SHH] |  | a fibrotic response can be induced |
